The results in this text go back to patent US4728650A, “3,4-dihydrobenzopyran derivatives and medicinal uses thereof” (Kuraray Co., Ltd., priority 1985, dated 1988).

Each structure is given as a SMILES string.

In general, inhibition in vivo refers to how much of the control response was suppressed. Lower therefore signals a weak effect.

Test [1] in a line: Hydrochloric acid-ethanol-induced ulcer in rats. The format is in vivo, Wistar rats (male). On the procedure:
Male Wistar rats (body weights, 170-210 g) were used in groups of 6 to 8 animals. Indomethacin, 20 mg/kg body weight, was injected subcutaneously to rats which had been deprived of food for 24 hours. After 7 hours, the stomach was excised under ether anesthesia. A 10% aqueous solution of formaldehyde was infused into the stomach until the stomach was inflated and, then, the stomach was immersed in a 10% aqueous solution of formaldehyde for 10 minutes for fixation of the tissue. After fixation, an incision was made along the greater curvature and the length of ulcers occurring in the glandular portion of the stomach was measured. The total length of ulcers occurring in a rat was taken as an ulcer index. Each test compound was orally administered, as suspended in a gum arabic solution in concentration of 5%, to rats 10 minutes before subcutaneous injection of indomethacin. Male Wistar rats (body weights, 160-190 g) were used in groups of 6 to 8 animals. One milliliter of a 60% aqueous solution of ethanol containing 150 mM hydrochloric acid was administered orally to rats which had been deprived of food for 24 hours. After one hour, the stomach was excised under ether anesthesia. In a manner similar to that described in study for indomethacin-induced ulcer, the ulcer index was determined. Each test compound was orally administered, as suspended in a gum arabic solution in concentration of 5%, to rats 1 hour before administration of hydrochloric acid-ethanol.

Test [2] in a line: Expectorant action: tracheal secretion of fluorescein sodium in rats. It counts as in vivo, Wistar rats (male). The note with it: Table 15; 50 mg/kg oral; control 5.20 ± 0.78. On the procedure: Male Wistar rats (body weights, 280-320 g) were used in groups of 7 animals. Each test compound was orally administered in dose of 50 mg/kg body weight to rats. Immediately after administration, 0.3 ml/100 g (body weight of rat) of a 1% aqueous solution of fluorescein sodium was injected into the caudal vein. One hour after administration of the test compound, pentobarbital sodium 100 mg/kg (body weight of rat) was injected intraperitoneally so that deep anesthesia might cause the rat to die. Then, the trachea was exposed and an incision was made in the trachea. A sonde was inserted thereinto and ligation was made. To the sonde was connected a syringe containing 10 ml of a 5% solution of sodium hydrogen carbonate kept at 37° C. and 4 ml of the solution of sodium hydrogen carbonate was injected into the lung. After 5 minutes, the fluid in the lung was removed. After this procedure of injection and removal was repeated three times, the fluid removed from the lung was filtered and the filtrate was made up with water to make 20 ml. The intensity of fluroescence was determined at the excitation wave length of 491 nm and the fluorescence wave length of 510 nm using a spectrophotometer (HITACHI model 650-10, Hitachi, Ltd.). The amount of fluorescein sodium secreted into the trachea was estimated from the intensity of fluorescence. Each test compound was administered as suspended in a gum arabic solution in concentration of 5%.

Where [3] appears, read: Rattus norvegicus, po, 1 h, Table 7, 25 mg/kg p.o.
[4] abbreviates: Table 5, 25 mg/kg p.o., control 11.09 ± 1.49.
Where [5] appears, read: Table 6, 25 mg/kg p.o., control 9.69 ± 1.68.
Where [6] appears, read: Rattus norvegicus, po, 1 h, Table 7, 12.5 mg/kg p.o.
Setting [7] is: Rattus norvegicus, po, 1 h, Table 7, 50 mg/kg p.o.
Setting [8] is: Table 5, 50 mg/kg p.o., control 11.09 ± 1.49.
[9] abbreviates: Rattus norvegicus, po, 1 h, Table 8, 50 mg/kg p.o.
Setting [10] is: Table 8, 50 mg/kg p.o., control 9.69 ± 1.68.
[11] abbreviates: Rattus norvegicus, po, 1 h, Table 12, 25 mg/kg p.o.
The mark [12] stands for this setting: Rattus norvegicus, po, 1 h, Table 12, 50 mg/kg p.o.
Setting [13] is: Rattus norvegicus, po, 1 h, Table 12, 100 mg/kg p.o.
Setting [14] is: Table 12, 25 mg/kg p.o., control 9.93 ± 0.91.
Where [15] appears, read: Table 12, 50 mg/kg p.o., control 9.93 ± 0.91.
Setting [16] is: Table 12, 100 mg/kg p.o., control 9.93 ± 0.91.

In test [1] (setting [3]), `CCOc1c(C)c(C)c2c(c1C)CCC(C)(CC(=O)NC(=N)N)O2` (stereo not shown) [Compound (2), N-(3,4-Dihydro-6-ethoxy-2,5,7,8-tetramethyl-2H-benzopyran-2-yl)acetylguanidine] gave an inhibition in vivo at 25 mg/kg of 89%. For the same compound, the “Ulcer index (mean ± S.E.)” value in test [1] (setting [4]) came out at 0.50 ± 0.34 mm.

Consider `CC(C)=CCOc1c(C)c(C)c2c(c1C)CCC(C)(CC(=O)NC(=N)N)O2` (stereo not shown) [Compound (3), N-(3,4-Dihydro-6-prenyloxy-2,5,7,8-tetramethyl-2H-benzopyran-2-yl)acetylguanidine], for which, in test [1] (setting [3]), the inhibition in vivo at 25 mg/kg was 98.7%. Also, the “Ulcer index (mean ± S.E.)” value in test [1] (setting [4]) stood at 0.14 ± 0.14 mm.

`COc1c(C)c(C)c2c(c1C)CCC(C)(C(=O)NC(=N)N)O2` (stereo not shown) [Compound (4), N-(3,4-Dihydro-6-methoxy-2,5,7,8-tetramethyl-2H-benzopyran-2-yl)carbonylguanidine] gave an inhibition in vivo at 25 mg/kg in test [1] (setting [3]) of 100%. Further, the “Ulcer index (mean ± S.E.)” value in test [1] (setting [5]) is 0.00 ± 0.00 mm.

`COc1c(C)c(C)c2c(c1C)CCC(C)(CCC(=O)NC(=N)N)O2` (stereo not shown) [Compound (5)] had an inhibition in vivo at 25 mg/kg in test [1] (setting [3]) of 100%. For the same compound, the “Ulcer index (mean ± S.E.)” value in test [1] (setting [4]) worked out at 0.00 ± 0.00 mm.

As to `COc1ccc2c(c1)CCC(C)(CC(=O)NC(=N)N)O2` (stereo not shown) [Compound (6), N-(3,4-Dihydro-6-methoxy-2-methyl-2H-benzopyran-2-yl)acetylguanidine], testing at 25 mg/kg in test [1] (setting [3]) gave an inhibition in vivo of 79.1%. Further, the “Ulcer index (mean ± S.E.)” value in test [1] (setting [5]) is listed as 2.03 ± 1.04 mm.

`COc1ccc2c(c1)OC(C)(CC(=O)NC(=N)N)CC2` (stereo not shown) [Compound (7), N-(3,4-Dihydro-7-methoxy-2-methyl-2H-benzopyran-2-yl)acetylguanidine] came in with an inhibition in vivo at 12.5 mg/kg in test [1] (setting [6]) of 71.9%. Further, the inhibition in vivo at 25 mg/kg in test [1] (setting [3]) stood at 84.2%. Moreover, the “Ulcer index (mean ± S.E.)” value in test [1] (Table 5, 12.5 mg/kg p.o., control 11.09 ± 1.49) is listed as 3.12 ± 0.66 mm; in test [1] (setting [5]), 1.53 ± 0.66 mm.

In the case of `CC1(CC(=O)NC(=N)N)CCc2cc(Cl)ccc2O1` (stereo not shown) [Compound (8), N-(3,4-Dihydro-6-chloro-2-methyl-2H-benzopyran-2-yl)acetylguanidine], testing at 25 mg/kg in test [1] (setting [3]) gave an inhibition in vivo of 100%. Also, the “Ulcer index (mean ± S.E.)” value in test [1] (setting [5]) amounted to 0.00 ± 0.00 mm.

In the case of `CNC(=S)NCCC1(C)CCc2c(C)c(OC)c(C)c(C)c2O1` (stereo not shown) [Compound (9), N-[2-(3,4-Dihydro-6-methoxy-2,5,7,8-tetramethyl-2H-benzopyran-2-yl)ethyl]-N'-methylthiourea], in test [1] (setting [3]), the inhibition in vivo at 25 mg/kg was determined as 47.3%. The compound further registered an inhibition in vivo at 50 mg/kg in test [1] (setting [7]) of 95.4%. In test [1] (setting [4]), the “Ulcer index (mean ± S.E.)” value was found to be 5.84 ± 0.75 mm.

For `COc1c(C)c(C)c2c(c1C)CCC(C)(CCNC(=N)N)O2` (stereo not shown) [Compound (10), N-[2-(3,4-Dihydro-6-methoxy-2,5,7,8-tetramethyl-2H-benzopyran-2-yl)ethyl]guanidine], the inhibition in vivo at 50 mg/kg in test [1] (setting [7]) is 72.6%. Besides, in test [1] (setting [8]), the “Ulcer index (mean ± S.E.)” value is on record as 3.04 ± 1.33 mm.

Take `CNC(=N)NCCC1(C)CCc2c(C)c(OC)c(C)c(C)c2O1` (stereo not shown) [Compound (11), N-[2-(3,4-Dihydro-6-methoxy-2,5,7,8-tetramethyl-2H-benzopyran-2-yl)ethyl]-N'-methylguanidine]: in test [1] (setting [7]), testing at 50 mg/kg gave an inhibition in vivo of 98.2%. The “Ulcer index (mean ± S.E.)” value in test [1] (setting [8]) stood at 0.20 ± 0.14 mm.

Compound `COc1c(C)c(C)c2c(c1C)CCC(C)(CCN1CCNCC1)O2` (stereo not shown) [Compound (12), 3,4-Dihydro-6-methoxy-2-[2-(piperazin-1-yl)ethyl]-2,5,7,8-tetramethyl-2H-benzopyran] displayed an inhibition in vivo at 25 mg/kg in test [1] (Rattus norvegicus, po, 1 h, Table 8, 25 mg/kg p.o.) of 98.7%. In test [1] (setting [9]), this compound came in with an inhibition in vivo at 50 mg/kg of 100%. For the same compound, the “Ulcer index (mean ± S.E.)” value was 0.13 ± 0.13 mm in test [1] (Table 8, 25 mg/kg p.o., control 9.69 ± 1.68) and 0.00 ± 0.00 mm in test [1] (setting [10]).

Consider `COc1c(C)c(C)c2c(c1C)CCC(C)(CCN1CCN(CC=C(C)C)CC1)O2` (stereo not shown) [Compound (13), 3,4-Dihydro-6-methoxy-2-[2-[4-(3-methyl-2-butenyl)piperazin-1-yl]ethyl]-2,5,7,8-tetramethyl-2H-benzopyran], for which the inhibition in vivo at 50 mg/kg in test [1] (setting [9]) was 100%. In addition, the “Ulcer index (mean ± S.E.)” value in test [1] (setting [10]) is 0.00 ± 0.00 mm.

`COc1c(C)c(C)c2c(c1C)CCC(C)(CCN1CCN(CC=C(C)CCC=C(C)C)CC1)O2` (stereo not shown) [Compound (14), 3,4-Dihydro-6-methoxy-2-[2-[4-(3,7-dimethyl-2,6-octadienyl)piperazin-1-yl]ethyl]-2,5,7,8-tetramethyl-2H-benzopyran] yielded an inhibition in vivo at 50 mg/kg in test [1] (setting [9]) of 100%. The “Ulcer index (mean ± S.E.)” value in test [1] (setting [10]) stood at 0.00 ± 0.00 mm.

The compound `COc1c(C)c(C)c2c(c1C)CCC(C)(CCN1CCN(CC=C(C)CCC=C(C)CCC=C(C)C)CC1)O2` (stereo not shown) [Compound (15), 3,4-Dihydro-6-methoxy-2-[2-[4-(3,7,11-trimethyl-2,6,10-dodecatrienyl)piperazin-1-yl]ethyl]-2,5,7,8-tetramethyl-2H-benzopyran] gave an inhibition in vivo at 50 mg/kg in test [1] (setting [9]) of 100%. In test [1] (setting [10]), the “Ulcer index (mean ± S.E.)” value came to 0.00 ± 0.00 mm.

Turning to `COc1cc(CN2CCN(CCC3(C)CCc4c(C)c(OC)c(C)c(C)c4O3)CC2)cc(OC)c1OC` (stereo not shown) [Compound (18), 3,4-Dihydro-6-methoxy-2-[2-[4-(3,4,5-trimethoxybenzyl)piperazin-1-yl]ethyl]-2,5,7,8-tetramethyl-2H-benzopyran], the inhibition in vivo at 50 mg/kg in test [1] (Rattus norvegicus, po, 1 h, Table 10, 50 mg/kg p.o.) came out at 83.2%. Moreover, in test [1] (Table 10, 50 mg/kg p.o., control 5.98 ± 1.96), the “Ulcer index (mean ± S.E.)” value was found to be 0.98 ± 0.98 mm.

For the compound `COc1c(C)c(C)c2c(c1C)CCC(C)(CCN1CCN(C(=O)c3ccc(N(C)C)cc3)CC1)O2` (stereo not shown) [Compound (20), 1-[2-(3,4-Dihydro-6-methoxy-2,5,7,8-tetramethyl-2H-benzopyran-2-yl)ethyl]-4-(4-dimethylaminobenzoyl)piperazine], the “Secretory amount (mean ± S.E.)” value in test [2] is given as 8.72 ± 1.45 μg/100 g (body weight of rat)/.

For `COc1c(C)c(C)c2c(c1C)CCC(C)(CCN1CCN(C(=O)c3ccc([N+](=O)[O-])cc3)CC1)O2` (stereo not shown) [Compound (21), 1-[2-(3,4-Dihydro-6-methoxy-2,5,7,8-tetramethyl-2H-benzopyran-2-yl)ethyl]-4-(4-nitrobenzoyl)piperazine], in test [2], the “Secretory amount (mean ± S.E.)” value is 5.89 ± 0.40 μg/100 g (body weight of rat)/.

As to `CC(C)=CCOc1ccc(/C=C/C(=O)c2ccc(OCC=C(C)C)cc2OCC(=O)O)cc1` [Sofalcone, 2'-carboxymethoxy-4,4'-bis(3-methyl-2-butenyloxy)calcon, reference compound], the inhibition in vivo at 25 mg/kg in test [1] (setting [11]) and in test [1] (setting [3]) was 25.8% in each case. The inhibition in vivo at 50 mg/kg in test [1] (setting [7]) and in test [1] (setting [12]) was 38.3% throughout. Further, the inhibition in vivo at 100 mg/kg in test [1] (setting [13]) is 39.8%. For the same compound, the inhibition in vivo at 300 mg/kg in test [1] (Rattus norvegicus, po, 1 h, Table 12, 300 mg/kg p.o.) was 100%. The “Ulcer index (mean ± S.E.)” value worked out at 7.37 ± 0.54 mm in test [1] (setting [14]); 6.13 ± 0.91 mm in test [1] (setting [15]); 5.98 ± 1.04 mm in test [1] (setting [16]); 0.00 ± 0.00 mm in test [1] (Table 12, 300 mg/kg p.o., control 9.93 ± 0.91).

For the compound `CC(=O)CCC=C(C)CC/C=C(\C)CC/C=C(\C)CCC=C(C)C` [Teprenone, reference compound], the inhibition in vivo at 25 mg/kg in test [1] (setting [11]) and in test [1] (setting [3]) was 78.4% throughout. This compound also registered an inhibition in vivo at 12.5 mg/kg in test [1] (setting [6]) of 33.8%. For the same compound, in test [1] (setting [12]), the inhibition in vivo at 50 mg/kg came to 91.4%. For the same compound, the inhibition in vivo at 100 mg/kg in test [1] (setting [13]) was found to be 96.3%. The “Ulcer index (mean ± S.E.)” value was determined as 2.15 ± 1.26 mm in test [1] (setting [14]), 0.85 ± 0.61 mm in test [1] (setting [15]) and 0.37 ± 0.37 mm in test [1] (setting [16]).
